The results in this text go back to patent publication US11491165B2 (Kinoxis Therapeutics Pty Ltd, priority 2016, dated 2022).

The target in data set [1] is T1, oxytocin receptor (OXTR), hOTR (Homo sapiens, UniProt P30559).
T1 construct: expressed in transfected cells
T1 sequence (P30559 1-389): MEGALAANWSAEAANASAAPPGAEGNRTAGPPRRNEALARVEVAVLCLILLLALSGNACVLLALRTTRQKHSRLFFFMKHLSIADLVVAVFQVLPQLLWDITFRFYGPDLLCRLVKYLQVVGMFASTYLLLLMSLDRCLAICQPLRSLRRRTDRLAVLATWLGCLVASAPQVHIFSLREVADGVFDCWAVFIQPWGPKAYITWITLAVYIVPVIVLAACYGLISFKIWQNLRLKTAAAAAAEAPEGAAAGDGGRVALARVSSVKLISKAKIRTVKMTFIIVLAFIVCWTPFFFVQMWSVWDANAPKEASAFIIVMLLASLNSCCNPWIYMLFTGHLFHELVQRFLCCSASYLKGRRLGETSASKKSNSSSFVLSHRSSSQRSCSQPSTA
Nature of the data set: Competition radioligand binding, [3H]-oxytocin, OTR-expressing HEK293 membranes. Particulars: [3H]-oxytocin 10 nM, 90 min 4 °C. On the procedure:
(§1) Human embryonic kidney cells (HEK-293) transfected to stably express untagged hOTR and V1aR using the Flp-In™ T-REx™ system (Life Technologies, Carlsbad, Calif. USA) were established as reported in Jorgensen et al., 2016 (the entire disclosure of which is hereby incorporated by reference). Cells were subsequently maintained in 10% DMEM containing hygromycin (80 μg/ml), penicillin (100 U/ml), streptomycin (0.1 mg/ml) and blasticidine S hydrochloride (15 μg/ml).
(§2) To induce receptor expression, cells were incubated with tetracycline (2 μg/mL) for 48 h. PBS with 5 mM EDTA (pH 7.4) was used to detach OTR and V1aR-expressing HEK293 cells from culture flasks. Harvested cells were centrifuged at 1200 g for 5 min and were resuspended in homogenization buffer (50 mM HEPES, 5 mM EDTA, 5 mM MgCl2; pH 7.4) prior to homogenization using an Ultra-Turrax homogeniser (IKA, Wilmington, N.C., USA). Homogenates were centrifuged three times for 30 min at 48.000 g, 4° C. for 30 min and membrane pellets resuspended in 50 mM Tris HCl, 5 mM MgCl2 (pH 7.4). A bicinchoninic acid assay was used according to the manufacturer's protocol (Bio-Rad, Hercules. Calif., USA) to measure final protein concentration. Membranes were stored at −80° C. until use in competition radioligand binding studies.
(§3) Reactions were incubated for 90 min at 4° C. to reach equilibrium, and terminated by rapid filtration over glass fibre filters (Whatman GF/A […]; Millipore, Darmstadt, Germany), and washing with ice-cold reaction buffer. Filters were dried, then incubated with Microscint 0 (Perkin Elmer) for 30 min before radioactivity was detected with a Microbeta2 2450 microplate-reader (Perkin Elmer). […] Specific binding in the presence of compounds was expressed as a percentage of specific binding in the presence of vehicle control. A sum-of-squares F-test was used to compare the goodness of fit of one-site, two-site and sigmoidal with variable hill slope binding models, and to calculate Ki's using Graphpad Prism (Graphpad Software, La Jolla, Calif., USA).

For data set [2], the target named is T2, vasopressin 1a receptor (V1aR) (Homo sapiens, UniProt P37288).
T2 construct: expressed in transfected cells
T2 sequence (P37288 whole entry): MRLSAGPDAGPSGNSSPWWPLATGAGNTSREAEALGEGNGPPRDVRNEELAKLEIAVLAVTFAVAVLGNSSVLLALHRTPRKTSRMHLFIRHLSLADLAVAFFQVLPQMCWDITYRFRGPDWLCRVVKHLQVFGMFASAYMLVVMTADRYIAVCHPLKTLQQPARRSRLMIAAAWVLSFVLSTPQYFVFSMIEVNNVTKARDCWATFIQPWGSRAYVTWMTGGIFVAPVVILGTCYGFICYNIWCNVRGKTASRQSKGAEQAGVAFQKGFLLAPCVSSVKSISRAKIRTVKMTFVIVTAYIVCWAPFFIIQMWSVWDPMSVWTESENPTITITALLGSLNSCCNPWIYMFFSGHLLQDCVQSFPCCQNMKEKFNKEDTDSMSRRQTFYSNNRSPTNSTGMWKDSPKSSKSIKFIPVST
As to the kind of experiment: Competition radioligand binding, [3H]-vasopressin, V1aR-expressing HEK293 membranes. Particulars: [3H]-vasopressin 2 nM, 90 min 4 °C. As for the experimental part: as §1, §2, §3

Data set [3] concerns the target T2, vasopressin 1a receptor (V1aR). As to the kind of experiment: IP1 accumulation assay, V1aR-expressing HEK-293 cells (agonist and antagonist assessment). Format: cell-based. Particulars: for EC50: agonist assessment, IP1, 1 h; for IC50: antagonist assessment vs AVP 25 nM (~EC70), IP1. As for the experimental part:
Cells were subsequently maintained in 10% DMEM containing hygromycin (80 μg/ml), penicillin (100 U/ml), streptomycin (0.1 mg/ml) and blasticidine S hydrochloride (15 μg/ml).
Cells were incubated in tetracycline (2 μg/mL) for 48 h to induce receptor expression. Intracellular IP1 levels induced by activation of the Gq protein coupled to the OTR and V1aR was indexed using the HTRF IP-One kit (CisBio International, Bedford, Mass., USA), according to manufacturer's protocol. For agonist assessment, cells were incubated with logarithmically-spaced concentrations of compounds (1 nM-100 μM) for 1 h prior to the addition of Ab-Cryptate and IP1-d2 for 1 h. The contents of each well were transferred to a white-walled proxy plate (Perkin Elmer) and fluorescence read using a Pherastar Microplate reader (BMG Labtech, Cary, N.C., USA). […] IP1 levels in the presence of compounds and OT or AVP were expressed as a percentage of levels seen with OT or AVP in the presence of vehicle control. Concentration response curves for OT and AVP were determined after 5 min incubation in drug or vehicle, and the data fitted using GraphPad PRISM to a 4-parameter logistic equation of the form y=Min+(Max−Min)/(1+10^((logEC50−X)*n)) where X is drug concentration and n is the H-ill slope. Data represent the mean±s.d. of at least 3 independent experiments, each in duplicate.

Data set [4] has as its target T1, oxytocin receptor (OXTR), hOTR. Nature of the data set: IP1 accumulation assay, OTR-expressing HEK-293 cells (agonist and antagonist assessment). In kind it is cell-based. Particulars: for Emax: HEK293, read-out: OXTR Emax (% OXT); for EC50: IP1, 1 h; for OV function: ratio of OXTR functional potency to V1aR functional potency, 'OT only' = function at OXTR only. As for the experimental part: as §1
OTR or V1aR-expressing HEK-293 cells were seeded onto poly-L-lysine (100 μg/ml)-coated 384-well plates at a density of 8.75×10^3 cells per well. Cells were incubated in tetracycline (2 μg/mL) for 48 h to induce receptor expression. Intracellular IP1 levels induced by activation of the Gq protein coupled to the OTR and V1aR was indexed using the HTRF IP-One kit (CisBio International, Bedford, Mass., USA), according to manufacturer's protocol. For agonist assessment, cells were incubated with logarithmically-spaced concentrations of compounds (1 nM-100 μM) for 1 h prior to the addition of Ab-Cryptate and IP1-d2 for 1 h. The contents of each well were transferred to a white-walled proxy plate (Perkin Elmer) and fluorescence read using a Pherastar Microplate reader (BMG Labtech, Cary, N.C., USA). For antagonist assessment, cells were incubated an ˜EC70 concentration of OT (30 nM) or AVP (25 nM) mixed with compounds (1 nM-100 μM) or vehicle control for 1 h. IP1 levels in the presence of compounds and OT or AVP were expressed as a percentage of levels seen with OT or AVP in the presence of vehicle control. Concentration response curves for OT and AVP were determined after 5 min incubation in drug or vehicle, and the data fitted using GraphPad PRISM to a 4-parameter logistic equation of the form y=Min+(Max−Min)/(1+10^((logEC50−X)*n)) where X is drug concentration and n is the H-ill slope. Data represent the mean±s.d. of at least 3 independent experiments, each in duplicate.

SMILES strings stand for the structures.

In the case of `COC(=O)C12CCC(C(=O)N3Cc4cnn(C)c4Nc4ccccc43)(CC1)CC2` [BcO-MC, methyl 4-(1-methyl-1,4,5,10-tetrahydrobenzo[b]pyrazolo[3,4-e][1,4]diazepine-5-carbonyl)bicyclo[2.2.2]octane-1-carboxylate], the melting point fell in the range of 198 to 211 °C.

Turning to `Cn1ncc2c1Nc1ccccc1N(C(=O)C1CCCCC1)C2` [CA6 (KA), cyclohexyl(1-methyl-4,10-dihydrobenzo[b]pyrazolo[3,4-e][1,4]diazepin-5 (1H)-yl)methanone], the Ki in data set [1] worked out at 1.08 ± 0.323 µM; in data set [2], 0.236 ± 0.075 µM. For the same compound, the EC50 is more than 10 µM in data set [3] and 0.481 ± 0.061 µM in data set [4] (agonist assessment). This compound also registered a half-inhibitory concentration (IC50) in data set [3] of more than 10 µM. Moreover, in data set [4], the Emax amounted to 17%. Moreover, the OV function in data set [4] is given as less than 0.04.

Take `Cn1ncc2c1Nc1ccccc1N(C(=O)c1cc(OCc3ccccc3)cc(OCc3ccccc3)c1)C2` [Example 9, (3,5-Bis(benzyloxy)phenyl)(1-methyl-4,10-dihydrobenzo[b]pyrazolo[3,4-e][1,4]diazepin-5 (1H)-yl)methanone]: the melting point lay in the range of 221 to 224 °C.

`Cn1ncc2c1Nc1ccccc1N(C(=O)C13C4C5C6C4C1C6C53)C2` (stereo not drawn) [QB] came in with a melting point of 194 to 203 °C.

Regarding `Cn1ncc2c1Nc1ccccc1N(C(=O)c1ccc(O)cc1)C2` [TAR-B049, (4-hydroxyphenyl)(1-methyl-4,10-dihydrobenzo[b]pyrazolo[3,4-e][1,4]diazepin-5 (1H)-yl)methanone], the melting point is more than 300 °C.

`CCCCCCOc1ccc(C(=O)N2Cc3cnn(C)c3Nc3ccccc32)cc1` [TAR-B085, (4-(hexyloxy)phenyl)(1-methyl-4,10-dihydrobenzo[b]pyrazolo[3,4-e][1,4]diazepin-5 (1H)-yl)methanone] yielded a melting point of 204 to 206 °C.

Take `CC1CCC(C(=O)N2Cc3cnn(C)c3Nc3ccccc32)CC1` (stereo not drawn) [TAR-C41, (1-methyl-4,10-dihydrobenzo[b]pyrazolo[3,4-e][1,4]diazepin-5 (1H)-yl)(4-methylcyclohexyl)methanone]: the melting point lay in the range of 234 to 239 °C.

In the case of `Cn1ncc2c1Nc1ccccc1N(C(=O)c1ccc(C(=O)O)cc1)C2` [TAR-C077, 4-(1-methyl-1,4,5,10-tetrahydrobenzo[b]pyrazolo[3,4-e][1,4]diazepine-5-carbonyl)benzoic acid], the melting point is more than 300 °C.

For the compound `Cn1ncc2c1Nc1ccccc1N(C(=O)c1ccc3c(c1)OCO3)C2` [TRGA95, benzo[d][1,3]dioxol-5-yl(1-methyl-4,10-dihydrobenzo[b]pyrazolo[3,4-e][1,4]diazepin-5 (1H)-yl)methanone], the Ki is 0.159 ± 0.032 µM in data set [1] and 0.018 ± 0.001 µM in data set [2]. Further, the 50% effective concentration (EC50) in data set [3] is more than 10 µM; in data set [4] (agonist assessment), 0.091 ± 0.025 µM. For the same compound, in data set [3], the concentration for half-maximal inhibition (IC50) is 1.53 ± 0.444 µM. Besides, the Emax in data set [4] worked out at 13%. Moreover, the OV function in data set [4] was 0.06.

On to `Cn1ncc2c1Nc1ccccc1N(C(=O)c1ccc3ccccc3c1)C2` [TRGA-81, (1-methyl-4,10-dihydrobenzo[b]pyrazolo[3,4-e][1,4]diazepin-5 (1H)-yl)(naphthalen-2-yl)methanone], for which the melting point is 228 to 243 °C.

Take `Cn1ncc2c1Nc1ccccc1N(C(=O)c1cccc3ccccc13)C2` [TRGA-89, (1-methyl-4,10-dihydrobenzo[b]pyrazolo[3,4-e][1,4]diazepin-5 (1H)-yl)(naphthalen-1-YI)methanone]: the melting point was 231 to 233 °C.

For the compound `Cc1cc(C(=O)N2Cc3cnn(C)c3Nc3ccccc32)ccc1CNC(=O)N1CCN(Cc2cc(O)cc(O)c2)CC1` [WAY, reference compound], in data set [4], the Emax is 45% and the OV function worked out at 0.69.

Regarding `COc1ccccc1C(=O)N1Cc2cnn(C)c2Nc2ccccc21` [WJ0659, (2-Methoxyphenyl)(1-methyl-4,10-dihydrobenzo[b]pyrazolo[3,4-e][1,4]diazepin-5 (1H)-yl)methanone], the melting point was 281 to 282 °C (dec.).

`Cn1ncc2c1Nc1ccccc1N(C(=O)c1ccc(Br)cc1)C2` [WJ0820, (4-Bromophenyl)(1-methyl-4,10-dihydrobenzo[b]pyrazolo[3,4-e][1,4]diazepin-5 (1H)-yl)methanone]: the melting point was 249 to 251 °C.

In the case of `Cn1ncc2c1Nc1ccccc1N(C(=O)c1cccc(Br)c1)C2` [WJ0821, (3-Bromophenyl)(1-methyl-4,10-dihydrobenzo[b]pyrazolo[3,4-e][1,4]diazepin-5 (1H)-yl)methanone], the melting point is 218 to 220 °C.

As to `Cn1ncc2c1Nc1ccccc1N(C(=O)c1ccccc1Br)C2` [WJ0822, (2-Bromophenyl)(1-methyl-4,10-dihydrobenzo[b]pyrazolo[3,4-e][1,4]diazepin-5 (1H)-yl)methanone], the melting point was 244 to 246 °C.

As to `Cc1cccc(C(=O)N2Cc3cnn(C)c3Nc3ccccc32)c1` [WJ0823, (1-Methyl-4,10-dihydrobenzo[b]pyrazolo[3,4-e][1,4]diazepin-5 (1H)-yl)(m-tolyl)methanone], the melting point lay within 254 to 256 °C. For the same compound, affinity in data set [1] was put at a Ki of 0.553 ± 0.155 µM. In data set [3], this compound gave a 50% effective concentration (EC50) of more than 10 µM and a 50% inhibitory concentration (IC50) of more than 10 µM. The Emax in data set [4] came out at 16.8%. Moreover, the “EC50 (OXTR agonist potency, mean ± s.d.)” value in data set [4] (agonist assessment, IP1) was determined as 0.42 ± 0.037 µM. For the same compound, a half-maximal response in data set [4] (agonist assessment) (EC50) required 0.407 ± 0.102 µM.
